The subject of one data set is Staphylococcus aureus. The experiment in a line: Antibacterial activity against methicillin-resistant Staphylococcus aureus clinical isolate M-11 assessed as inhibition of visible growth incubated for 16 to 18 hrs by CLSI method. Format: functional. To be noted: time 16-18 hrs, read-out: MIC100.
As for `C=CCc1ccc(O)c(-c2cc(CC=C)ccc2OCCCC[N+](C)(C)CC(=O)N(CCCC)CCCC)c1.[Br-]`, the MIC is 16 µg/mL.
On the same count and under the same terms, then `C=CCc1ccc(OCCCC[N+](C)(C)CC(=O)N(CCCC)CCCC)c(-c2ccc(OCCCC[N+](C)(C)CC(=O)N(CCCC)CCCC)c(CC=C)c2)c1.[Br-].[Br-]`, with 4 µg/mL.

The next data set relates to Staphylococcus aureus. The experiment in a line: Antibacterial activity against methicillin-resistant Staphylococcus aureus clinical isolate M-16 assessed as inhibition of visible growth incubated for 16 to 18 hrs by CLSI method. It is filed as functional. To be noted: time 16-18 hrs, read-out: MIC100.
Take `C=CCc1ccc(O)c(-c2cc(CC=C)ccc2OCCCC[N+](C)(C)CC(=O)N(CCCC)CCCC)c1.[Br-]`: the MIC was found to be 8 µg/mL.
`C=CCc1ccc(OCCCC[N+](C)(C)CC(=O)N(CCCC)CCCC)c(-c2ccc(OCCCC[N+](C)(C)CC(=O)N(CCCC)CCCC)c(CC=C)c2)c1.[Br-].[Br-]`: the MIC was 16 µg/mL.

The next data set deals with Staphylococcus aureus. Briefly: Antibacterial activity against methicillin-resistant Staphylococcus aureus clinical isolate M-18 assessed as inhibition of visible growth incubated for 16 to 18 hrs by CLSI method. Format: functional. To be noted: time 16-18 hrs, read-out: MIC100.
Take `C=CCc1ccc(O)c(-c2cc(CC=C)ccc2OCCCC[N+](C)(C)CC(=O)N(CCCC)CCCC)c1.[Br-]`: the MIC worked out at 8 µg/mL.
The same measure, in the same setting: for `C=CCc1ccc(OCCCC[N+](C)(C)CC(=O)N(CCCC)CCCC)c(-c2ccc(OCCCC[N+](C)(C)CC(=O)N(CCCC)CCCC)c(CC=C)c2)c1.[Br-].[Br-]` the value was 8 µg/mL.

In another data set the test system is Staphylococcus aureus. Briefly: Antibacterial activity against methicillin-resistant Staphylococcus aureus clinical isolate M-19 assessed as inhibition of visible growth incubated for 16 to 18 hrs by CLSI method. It is filed as functional. To be noted: time 16-18 hrs, read-out: MIC100.
`C=CCc1ccc(O)c(-c2cc(CC=C)ccc2OCCCC[N+](C)(C)CC(=O)N(CCCC)CCCC)c1.[Br-]`: the MIC is 8 µg/mL.
On the same count and under the same terms, then `C=CCc1ccc(OCCCC[N+](C)(C)CC(=O)N(CCCC)CCCC)c(-c2ccc(OCCCC[N+](C)(C)CC(=O)N(CCCC)CCCC)c(CC=C)c2)c1.[Br-].[Br-]`, with 4 µg/mL.

Another data set has as its system Salmonella enterica. Briefly: Antibacterial activity against Salmonella enterica 349812 assessed as inhibition of visible growth incubated for 16 to 18 hrs by CLSI method. It is filed as functional. To be noted: time 16-18 hrs, read-out: MIC100.
Consider `C=CCc1ccc(O)c(-c2cc(CC=C)ccc2OCCCC[N+](C)(C)CC(=O)N(CCCC)CCCC)c1.[Br-]`, for which the MIC is 32 µg/mL.
As for `C=CCc1ccc(OCCCC[N+](C)(C)CC(=O)N(CCCC)CCCC)c(-c2ccc(OCCCC[N+](C)(C)CC(=O)N(CCCC)CCCC)c(CC=C)c2)c1.[Br-].[Br-]`, the MIC turned out to be 8 µg/mL.

The subject of another data set is Salmonella enterica. The experiment in a line: Antibacterial activity against Salmonella enterica 8389 assessed as inhibition of visible growth incubated for 16 to 18 hrs by CLSI method. Format: functional. To be noted: time 16-18 hrs, read-out: MIC100.
Take `C=CCc1ccc(O)c(-c2cc(CC=C)ccc2OCCCC[N+](C)(C)CC(=O)N(CCCC)CCCC)c1.[Br-]`: the MIC was 64 µg/mL.
On the same count and under the same terms, for `C=CCc1ccc(OCCCC[N+](C)(C)CC(=O)N(CCCC)CCCC)c(-c2ccc(OCCCC[N+](C)(C)CC(=O)N(CCCC)CCCC)c(CC=C)c2)c1.[Br-].[Br-]` the value was 16 µg/mL.

The subject of the next data set is Staphylococcus aureus. Briefly: Antibacterial activity against methicillin-resistant Staphylococcus aureus clinical isolate M-17 assessed as inhibition of visible growth incubated for 16 to 18 hrs by CLSI method. To be noted: time 16-18 hrs, read-out: MIC100. It is filed as functional.
Take `C=CCc1ccc(O)c(-c2cc(CC=C)ccc2OCCCC[N+](C)(C)CC(=O)N(CCCC)CCCC)c1.[Br-]`: the MIC was 8 µg/mL.
As to `C=CCc1ccc(OCCCC[N+](C)(C)CC(=O)N(CCCC)CCCC)c(-c2ccc(OCCCC[N+](C)(C)CC(=O)N(CCCC)CCCC)c(CC=C)c2)c1.[Br-].[Br-]`, the MIC came out at 8 µg/mL.

Tested on in the next data set: not listed separately
The experiment in a line: Hemolytic activity in sheep RBC assessed as hemolysis incubated for 1 hr. Format: ADME, cell-based, Ovis aries, Erythrocyte. To be noted: sheep red blood cells (erythrocytes).
One may read the HC50 as the concentration giving 50% haemolysis. For the compound `C=CCc1ccc(O)c(-c2cc(CC=C)ccc2OCCCC[N+](C)(C)CC(=O)N(CCCC)CCCC)c1.[Br-]`, the HC50 at 1 h turned out to be 712 µg/mL.
In the case of `C=CCc1ccc(OCCCC[N+](C)(C)CC(=O)N(CCCC)CCCC)c(-c2ccc(OCCCC[N+](C)(C)CC(=O)N(CCCC)CCCC)c(CC=C)c2)c1.[Br-].[Br-]`, the HC50 at 1 h was 633 µg/mL.

In the next data set the test system is Micrococcus luteus. The experiment in a line: Antibacterial activity against Micrococcus luteus assessed as inhibition of visible growth incubated for 16 to 18 hrs by CLSI method. Format: functional. To be noted: time 16-18 hrs, read-out: MIC100.
Regarding `C=CCc1ccc(O)c(-c2cc(CC=C)ccc2OCCCC[N+](C)(C)CC(=O)N(CCCC)CCCC)c1.[Br-]`, the MIC worked out at 2 µg/mL.
The same measure, in the same setting: then `C=CCc1ccc(OCCCC[N+](C)(C)CC(=O)N(CCCC)CCCC)c(-c2ccc(OCCCC[N+](C)(C)CC(=O)N(CCCC)CCCC)c(CC=C)c2)c1.[Br-].[Br-]`, with 4 µg/mL.

The next data set relates to Bacillus subtilis. The experiment in a line: Antibacterial activity against Bacillus subtilis assessed as inhibition of visible growth incubated for 16 to 18 hrs by CLSI method. Format: functional. To be noted: time 16-18 hrs, read-out: MIC100.
`C=CCc1ccc(O)c(-c2cc(CC=C)ccc2OCCCC[N+](C)(C)CC(=O)N(CCCC)CCCC)c1.[Br-]`: the MIC is 1 µg/mL.
With `C=CCc1ccc(OCCCC[N+](C)(C)CC(=O)N(CCCC)CCCC)c(-c2ccc(OCCCC[N+](C)(C)CC(=O)N(CCCC)CCCC)c(CC=C)c2)c1.[Br-].[Br-]`, the MIC came to 2 µg/mL.

In the next data set the test system is Staphylococcus aureus. Briefly: Antibacterial activity against methicillin-resistant Staphylococcus aureus clinical isolate M-14 assessed as inhibition of visible growth incubated for 16 to 18 hrs by CLSI method. It is filed as functional. To be noted: time 16-18 hrs, read-out: MIC100.
With `C=CCc1ccc(O)c(-c2cc(CC=C)ccc2OCCCC[N+](C)(C)CC(=O)N(CCCC)CCCC)c1.[Br-]`, the MIC was 8 µg/mL.
In the case of `C=CCc1ccc(OCCCC[N+](C)(C)CC(=O)N(CCCC)CCCC)c(-c2ccc(OCCCC[N+](C)(C)CC(=O)N(CCCC)CCCC)c(CC=C)c2)c1.[Br-].[Br-]`, the MIC amounted to 8 µg/mL.

The next data set relates to Escherichia coli. Briefly: Antibacterial activity against Escherichia coli ATCC25922 assessed as inhibition of visible growth incubated for 16 to 18 hrs by CLSI method. To be noted: time 16-18 hrs, read-out: MIC100. Format: functional.
As for `C=CCc1ccc(O)c(-c2cc(CC=C)ccc2OCCCC[N+](C)(C)CC(=O)N(CCCC)CCCC)c1.[Br-]`, the MIC was 8 µg/mL.
For `C=CCc1ccc(OCCCC[N+](C)(C)CC(=O)N(CCCC)CCCC)c(-c2ccc(OCCCC[N+](C)(C)CC(=O)N(CCCC)CCCC)c(CC=C)c2)c1.[Br-].[Br-]`, the MIC was 8 µg/mL.

For another data set, the system named is Staphylococcus aureus. The experiment in a line: Antibacterial activity against methicillin-resistant Staphylococcus aureus clinical isolate M-15 assessed as inhibition of visible growth incubated for 16 to 18 hrs by CLSI method. Format: functional. To be noted: time 16-18 hrs, read-out: MIC100.
Take `C=CCc1ccc(O)c(-c2cc(CC=C)ccc2OCCCC[N+](C)(C)CC(=O)N(CCCC)CCCC)c1.[Br-]`: the MIC came to 8 µg/mL.
On the same count and under the same terms, then `C=CCc1ccc(OCCCC[N+](C)(C)CC(=O)N(CCCC)CCCC)c(-c2ccc(OCCCC[N+](C)(C)CC(=O)N(CCCC)CCCC)c(CC=C)c2)c1.[Br-].[Br-]`, with 8 µg/mL.

Tested on in the next data set: not listed separately
Briefly: Selectivity index, HC50 for hemolytic activity in sheep RBC to MIC for antibacterial activity against Staphylococcus aureus ATCC29213. It is filed as toxicity. To be noted: sheep red blood cells (erythrocytes), read-out: Selectivity Index.
Regarding `C=CCc1ccc(O)c(-c2cc(CC=C)ccc2OCCCC[N+](C)(C)CC(=O)N(CCCC)CCCC)c1.[Br-]`, the selectivity ratio is 356.
Same read-out and setting: for `C=CCc1ccc(OCCCC[N+](C)(C)CC(=O)N(CCCC)CCCC)c(-c2ccc(OCCCC[N+](C)(C)CC(=O)N(CCCC)CCCC)c(CC=C)c2)c1.[Br-].[Br-]` the value was 316.

The subject of the next data set is Staphylococcus aureus. Briefly: Antibacterial activity against Staphylococcus aureus ATCC29213 assessed as inhibition of visible growth incubated for 16 to 18 hrs by CLSI method. It is filed as functional. To be noted: time 16-18 hrs, read-out: MIC100.
`C=CCc1ccc(O)c(-c2cc(CC=C)ccc2OCCCC[N+](C)(C)CC(=O)N(CCCC)CCCC)c1.[Br-]`: the MIC was determined as 2 µg/mL.
Still for that read-out and setting: then `C=CCc1ccc(OCCCC[N+](C)(C)CC(=O)N(CCCC)CCCC)c(-c2ccc(OCCCC[N+](C)(C)CC(=O)N(CCCC)CCCC)c(CC=C)c2)c1.[Br-].[Br-]`, with 2 µg/mL.

Another data set has as its system Staphylococcus aureus. The experiment in a line: Antibacterial activity against methicillin-resistant Staphylococcus aureus clinical isolate M-12 assessed as inhibition of visible growth incubated for 16 to 18 hrs by CLSI method. To be noted: time 16-18 hrs, read-out: MIC100. Format: functional.
As for `C=CCc1ccc(O)c(-c2cc(CC=C)ccc2OCCCC[N+](C)(C)CC(=O)N(CCCC)CCCC)c1.[Br-]`, the MIC stood at 16 µg/mL.
Consider `C=CCc1ccc(OCCCC[N+](C)(C)CC(=O)N(CCCC)CCCC)c(-c2ccc(OCCCC[N+](C)(C)CC(=O)N(CCCC)CCCC)c(CC=C)c2)c1.[Br-].[Br-]`, for which the MIC was found to be 8 µg/mL.

The subject of the next data set is Enterococcus faecalis. Briefly: Antibacterial activity against Enterococcus faecalis ATCC29212 assessed as inhibition of visible growth incubated for 16 to 18 hrs by CLSI method. It is filed as functional. To be noted: time 16-18 hrs, read-out: MIC100.
Take `C=CCc1ccc(O)c(-c2cc(CC=C)ccc2OCCCC[N+](C)(C)CC(=O)N(CCCC)CCCC)c1.[Br-]`: the MIC turned out to be 4 µg/mL.
In the case of `C=CCc1ccc(OCCCC[N+](C)(C)CC(=O)N(CCCC)CCCC)c(-c2ccc(OCCCC[N+](C)(C)CC(=O)N(CCCC)CCCC)c(CC=C)c2)c1.[Br-].[Br-]`, the MIC was 4 µg/mL.

The subject of another data set is Staphylococcus aureus. Briefly: Antibacterial activity against methicillin-resistant Staphylococcus aureus clinical isolate M-13 assessed as inhibition of visible growth incubated for 16 to 18 hrs by CLSI method. It is filed as functional. To be noted: time 16-18 hrs, read-out: MIC100.
Turning to `C=CCc1ccc(O)c(-c2cc(CC=C)ccc2OCCCC[N+](C)(C)CC(=O)N(CCCC)CCCC)c1.[Br-]`, the MIC was 8 µg/mL.
As to `C=CCc1ccc(OCCCC[N+](C)(C)CC(=O)N(CCCC)CCCC)c(-c2ccc(OCCCC[N+](C)(C)CC(=O)N(CCCC)CCCC)c(CC=C)c2)c1.[Br-].[Br-]`, the MIC came to 8 µg/mL.

The test system of a further data set is Staphylococcus aureus. The experiment in a line: Antibacterial activity against methicillin-resistant Staphylococcus aureus clinical isolate M-20 assessed as inhibition of visible growth incubated for 16 to 18 hrs by CLSI method. It is filed as functional. To be noted: time 16-18 hrs, read-out: MIC100.
Turning to `C=CCc1ccc(O)c(-c2cc(CC=C)ccc2OCCCC[N+](C)(C)CC(=O)N(CCCC)CCCC)c1.[Br-]`, the MIC is 8 µg/mL.
Take `C=CCc1ccc(OCCCC[N+](C)(C)CC(=O)N(CCCC)CCCC)c(-c2ccc(OCCCC[N+](C)(C)CC(=O)N(CCCC)CCCC)c(CC=C)c2)c1.[Br-].[Br-]`: the MIC amounted to 8 µg/mL.

The next data set concerns Stenotrophomonas maltophilia. The experiment in a line: Antibacterial activity against Stenotrophomonas maltophilia assessed as inhibition of visible growth incubated for 16 to 18 hrs by CLSI method. Format: functional. To be noted: time 16-18 hrs, read-out: MIC100.
Regarding `C=CCc1ccc(O)c(-c2cc(CC=C)ccc2OCCCC[N+](C)(C)CC(=O)N(CCCC)CCCC)c1.[Br-]`, the MIC stood at 32 µg/mL.
Same read-out and setting: for `C=CCc1ccc(OCCCC[N+](C)(C)CC(=O)N(CCCC)CCCC)c(-c2ccc(OCCCC[N+](C)(C)CC(=O)N(CCCC)CCCC)c(CC=C)c2)c1.[Br-].[Br-]` the value was 16 µg/mL.

For the origin of these results see ChEMBL document CHEMBL4831516, “Development of Membrane-Active Honokiol/Magnolol Amphiphiles as Potent Antibacterial Agents against Methicillin-Resistant Staphylococcus aureus (MRSA)” (J Med Chem, 2021).
